Results reported in ChEMBL document CHEMBL5325395, “Design, synthesis and anti-ovarian cancer activities of thieno[2,3-d]pyrimidine based chimeric BRD4 inhibitor/nitric oxide-donator” (Eur J Med Chem, 2023).
The source made the active and inactive calls. The rule behind the calls is not given here.

Legend:
[1] = tested on: SK-OV-3; test: Antitumor activity against human SK-OV-3 cells xenografted in BALB/c nude mouse assessed as increase in tumor cell apoptosis at 30 mg/kg, ip administered for 19 days by TUNEL staining based analysis; type: functional, organism-based; conditions: time 19.0 day
[2] = tested on: ES-2; test: Antiproliferative activity against human ES2 cells assessed as reduction in cell viability incubated for 24 hrs by CCK8 assay; type: functional, cell-based; conditions: ES-2, 24 h
[3] = tested on: SK-OV-3; test: Induction of apoptosis in human SK-OV-3 cells assessed as late apoptotic cells at 2 uM incubated for 24 hrs by Annexin V and PI staining based flow cytometry analysis (reference value: 0 %); type: functional
[4] = tested on: SK-OV-3; test: Induction of apoptosis in human SK-OV-3 cells assessed as early apoptotic cells at 1 uM incubated for 24 hrs by Annexin V and PI staining based flow cytometry analysis (reference value: 0.020 %); type: functional
[5] = tested on: SK-OV-3; test: Induction of autophagy in human SK-OV-3 cells assessed as GFP-LC3 aggregation incubated for 24 hrs by transmission electron microscopy analysis; type: functional, cell-based
[6] = tested on: SK-OV-3; test: Induction of apoptosis in human SK-OV-3 cells assessed as downregulation of Bcl-2 protein expression at 1 to 2 uM incubated for 24 hrs by Western blotting analysis; type: functional, cell-based; conditions: dose 1-2 µM
[7] = tested on: A2780; test: Antiproliferative activity against human A2780 cells assessed as reduction in cell viability incubated for 24 hrs by CCK8 assay; type: functional, cell-based; conditions: A2780, 24 h
[8] = molecular target: T1, Bromodomain-containing protein 2 (Homo sapiens, UniProt P25440); test: Inhibition of BRD2 bromodomain 2 (unknown origin) by Alphascreen based method
[9] = tested on: SK-OV-3; test: Induction of apoptosis in human SK-OV-3 cells assessed as upregulation of p62/SQSTM1 protein expression at 1 to 2 uM incubated for 24 hrs by Western blotting analysis; type: functional, cell-based; conditions: dose 1-2 µM
[10] = molecular target: T2, Bromodomain-containing protein 4 (Homo sapiens, UniProt O60885); test: Inhibition of BRD4 in human SK-OV-3 cells assessed as reduction in c-Myc protein expression by Western blot analysis; type: cell-based
[11] = molecular target: T1, Bromodomain-containing protein 2; test: Binding affinity to BRD2 BD2 (unknown origin) by thermal denaturation assay
[12] = molecular target: T2, Bromodomain-containing protein 4; test: Inhibition of BRD4 bromodomain 2 (unknown origin) by Alphascreen based method
[13] = Induction of NO release in phosphate buffer at 4 hrs by Griess reagent based spectrophotometer analysis; type: functional
[14] = Induction of NO release in phosphate buffer at 6 hrs by Griess reagent based spectrophotometer analysis; type: functional
[15] = tested on: SK-OV-3; test: Induction of autophagy in human SK-OV-3 cells assessed as reduction in GFP-LC3 labeled lysosomes at 2 umol/L incubated for 24 hrs by immunofluorescence analysis; type: functional, cell-based; conditions: dose 2.0 µmol/L
[16] = tested on: SK-OV-3; test: Induction of apoptosis in human SK-OV-3 cells assessed as viable cells at 2 uM incubated for 24 hrs by Annexin V and PI staining based flow cytometry analysis (reference value: 99.8 %); type: functional; conditions: read-out: Activity
[17] = molecular target: T2, Bromodomain-containing protein 4; test: Inhibition of BRD4 (unknown origin)
[18] = tested on: SK-OV-3; test: Induction of apoptosis in human SK-OV-3 cells assessed as necrotic cells at 2 uM incubated for 24 hrs by Annexin V and PI staining based flow cytometry analysis (reference value: 0.15 %); type: functional
[19] = tested on: Mus musculus; test: In vivo inhibition of BRD4 in BALB/c nude mouse xenografted with human SK-OV-3 cells assessed as reduction in c-Myc expression at 30 mg/kg, ip administered for 19 days by immunohistochemical analysis; type: functional, organism-based; conditions: time 19.0 day
[20] = tested on: SK-OV-3; test: Induction of autophagy in human SK-OV-3 cells assessed as appearance of autophagic vacuoles incubated for 24 hrs by confocal fluorescence microscopy analysis; type: functional, cell-based
[21] = molecular target: T2, Bromodomain-containing protein 4; test: Binding affinity to BRD4 BD2 (unknown origin) by thermal denaturation assay
[22] = Induction of NO release in phosphate buffer at 1 hr by Griess reagent based spectrophotometer analysis; type: functional
[23] = Toxicity in BALB/c mouse xenografted with human SK-OV-3 cells assessed as change in body weight at 30 mg/kg, ip administered for 19 days; type: organism-based; conditions: in vivo, 456 h, time 19 day
[24] = tested on: SK-OV-3; test: Induction of apoptosis in human SK-OV-3 cells assessed as late apoptotic cells at 1 uM incubated for 24 hrs by Annexin V and PI staining based flow cytometry analysis (reference value: 0 %); type: functional
[25] = tested on: SK-OV-3; test: Antiproliferative activity against human SK-OV-3 cells assessed as reduction in cell viability incubated for 24 hrs by CCK8 assay; type: functional, cell-based; conditions: SK-OV-3, 24 h
[26] = tested on: SK-OV-3; test: Antitumor activity against human SK-OV-3 cells xenografted in Balb/c nude mouse assessed as tumor growth inhibition at 30 mg/kg, ip administered for 19 days; type: functional, organism-based; conditions: time 19.0 day
[27] = tested on: SK-OV-3; test: Antitumor activity against human SK-OV-3 cells xenografted in BALB/c nude mouse assessed as reduction in Ki-67 expression at 30 mg/kg, ip administered for 19 days by immunohistochemical analysis; type: functional, organism-based; conditions: time 19.0 day
[28] = Induction of NO release in phosphate buffer at 2 hrs by Griess reagent based spectrophotometer analysis; type: functional
[29] = molecular target: T1, Bromodomain-containing protein 2; test: Inhibition of BRD2 bromodomain 1 (unknown origin) by Alphascreen based method
[30] = tested on: SK-OV-3; test: Induction of apoptosis in human SK-OV-3 cells assessed as upregulation of cytochrome-C protein expression at 1 to 2 uM incubated for 24 hrs by Western blotting analysis; type: functional, cell-based; conditions: dose 1-2 µM
[31] = tested on: SK-OV-3; test: Induction of autophagy in human SK-OV-3 cells assessed as GFP-LC3 aggregation incubated for 24 hrs by confocal fluorescence microscopy analysis; type: functional, cell-based
[32] = Induction of NO release in phosphate buffer at 24 hrs by Griess reagent based spectrophotometer analysis; type: functional
[33] = molecular target: T3, Bromodomain-containing protein 3 (Homo sapiens, UniProt Q15059); test: Inhibition of BRD3 bromodomain 1 (unknown origin) by Alphascreen based method
[34] = tested on: SK-OV-3; test: Induction of apoptosis in human SK-OV-3 cells assessed as upregulation of Beclin1 protein expression at 1 to 2 uM incubated for 24 hrs by Western blotting analysis; type: functional, cell-based; conditions: dose 1-2 µM
[35] = Induction of NO release in phosphate buffer at 0.5 hrs by Griess reagent based spectrophotometer analysis; type: functional
[36] = molecular target: T2, Bromodomain-containing protein 4; test: Inhibition of BRD4 in human SK-OV-3 cells assessed as reduction in BRD4 protein expression by Western blot analysis; type: cell-based
[37] = tested on: SK-OV-3; test: Induction of apoptosis in human SK-OV-3 cells assessed as upregulation of cleaved caspase 3 protein expression at 1 to 2 uM incubated for 24 hrs by Western blotting analysis; type: functional, cell-based; conditions: dose 1-2 µM
[38] = molecular target: T2, Bromodomain-containing protein 4; test: Binding affinity to BRD4 BD1 (unknown origin) by thermal denaturation assay
[39] = tested on: OVCAR-3; test: Antiproliferative activity against human OVCAR-3 cells assessed as reduction in cell viability incubated for 24 hrs by CCK8 assay; type: functional, cell-based; conditions: OVCAR-3, 24 h
[40] = molecular target: T1, Bromodomain-containing protein 2; test: Binding affinity to BRD2 BD1 (unknown origin) by thermal denaturation assay
[41] = tested on: SK-OV-3; test: Induction of autophagy in human SK-OV-3 cells assessed as reduction in LAMP1 labeled lysosomes at 2 umol/L incubated for 24 hrs by immunofluorescence analysis; type: functional, cell-based; conditions: dose 2.0 µmol/L
[42] = tested on: SK-OV-3; test: Induction of apoptosis in human SK-OV-3 cells assessed as upregulation of LC3II/I protein expression at 1 to 2 uM incubated for 24 hrs by Western blotting analysis; type: functional, cell-based; conditions: dose 1-2 µM
[43] = tested on: SW626; test: Antiproliferative activity against human SW626 cells assessed as reduction in cell viability incubated for 24 hrs by CCK8 assay; type: functional, cell-based; conditions: SW626, 24 h
[44] = molecular target: Bromodomain testis-specific protein (Homo sapiens, UniProt Q58F21); test: Inhibition of BRDT bromodomain 1 (unknown origin) by Alphascreen based method
[45] = Induction of NO release in phosphate buffer at 3 hrs by Griess reagent based spectrophotometer analysis; type: functional
[46] = tested on: SK-OV-3; test: Induction of autophagy in human SK-OV-3 cells assessed as increase in autophagosomes at 2 umol/L incubated for 24 hrs by immunofluorescence analysis; type: functional, cell-based; conditions: dose 2.0 µmol/L
[47] = tested on: SK-OV-3; test: Induction of autophagy in human SK-OV-3 cells assessed as appearance of autophagic vacuoles incubated for 24 hrs by transmission electron microscopy analysis; type: functional, cell-based
[48] = molecular target: T2, Bromodomain-containing protein 4; test: Inhibition of BRD4 bromodomain 1 (unknown origin) by Alphascreen based method
[49] = tested on: SK-OV-3; test: Induction of apoptosis in human SK-OV-3 cells assessed as early apoptotic cells at 2 uM incubated for 24 hrs by Annexin V and PI staining based flow cytometry analysis (reference value: 0.020 %); type: functional
[50] = molecular target: T3, Bromodomain-containing protein 3; test: Inhibition of BRD3 bromodomain 2 (unknown origin) by Alphascreen based method
[51] = tested on: SK-OV-3; test: Induction of apoptosis in human SK-OV-3 cells assessed as viable cells at 1 uM incubated for 24 hrs by Annexin V and PI staining based flow cytometry analysis (reference value: 99.8 %); type: functional; conditions: read-out: Activity
[52] = tested on: SK-OV-3; test: Induction of apoptosis in human SK-OV-3 cells assessed as necrotic cells at 1 uM incubated for 24 hrs by Annexin V and PI staining based flow cytometry analysis (reference value: 0.15 %); type: functional

T1 sequence (P25440 whole entry): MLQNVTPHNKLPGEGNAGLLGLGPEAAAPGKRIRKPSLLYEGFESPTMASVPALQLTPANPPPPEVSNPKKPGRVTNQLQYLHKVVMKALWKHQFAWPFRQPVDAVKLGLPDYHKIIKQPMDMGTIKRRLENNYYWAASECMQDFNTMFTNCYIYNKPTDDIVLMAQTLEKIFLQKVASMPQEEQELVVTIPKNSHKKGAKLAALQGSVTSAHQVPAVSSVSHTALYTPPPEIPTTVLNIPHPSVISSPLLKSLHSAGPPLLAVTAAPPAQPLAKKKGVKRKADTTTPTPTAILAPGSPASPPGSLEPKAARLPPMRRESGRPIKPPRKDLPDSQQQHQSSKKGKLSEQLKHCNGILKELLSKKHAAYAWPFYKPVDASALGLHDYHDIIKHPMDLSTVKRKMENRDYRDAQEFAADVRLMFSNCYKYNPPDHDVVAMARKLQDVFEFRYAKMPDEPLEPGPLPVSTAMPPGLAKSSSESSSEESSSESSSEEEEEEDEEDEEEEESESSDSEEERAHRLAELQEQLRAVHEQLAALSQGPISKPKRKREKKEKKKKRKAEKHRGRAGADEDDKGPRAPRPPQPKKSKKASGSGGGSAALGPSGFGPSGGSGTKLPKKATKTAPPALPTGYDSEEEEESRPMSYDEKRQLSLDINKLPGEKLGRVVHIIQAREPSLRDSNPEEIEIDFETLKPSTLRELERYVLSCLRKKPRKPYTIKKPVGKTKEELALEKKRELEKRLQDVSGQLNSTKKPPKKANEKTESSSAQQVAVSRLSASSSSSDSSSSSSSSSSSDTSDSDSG
T3 sequence (Q15059 whole entry): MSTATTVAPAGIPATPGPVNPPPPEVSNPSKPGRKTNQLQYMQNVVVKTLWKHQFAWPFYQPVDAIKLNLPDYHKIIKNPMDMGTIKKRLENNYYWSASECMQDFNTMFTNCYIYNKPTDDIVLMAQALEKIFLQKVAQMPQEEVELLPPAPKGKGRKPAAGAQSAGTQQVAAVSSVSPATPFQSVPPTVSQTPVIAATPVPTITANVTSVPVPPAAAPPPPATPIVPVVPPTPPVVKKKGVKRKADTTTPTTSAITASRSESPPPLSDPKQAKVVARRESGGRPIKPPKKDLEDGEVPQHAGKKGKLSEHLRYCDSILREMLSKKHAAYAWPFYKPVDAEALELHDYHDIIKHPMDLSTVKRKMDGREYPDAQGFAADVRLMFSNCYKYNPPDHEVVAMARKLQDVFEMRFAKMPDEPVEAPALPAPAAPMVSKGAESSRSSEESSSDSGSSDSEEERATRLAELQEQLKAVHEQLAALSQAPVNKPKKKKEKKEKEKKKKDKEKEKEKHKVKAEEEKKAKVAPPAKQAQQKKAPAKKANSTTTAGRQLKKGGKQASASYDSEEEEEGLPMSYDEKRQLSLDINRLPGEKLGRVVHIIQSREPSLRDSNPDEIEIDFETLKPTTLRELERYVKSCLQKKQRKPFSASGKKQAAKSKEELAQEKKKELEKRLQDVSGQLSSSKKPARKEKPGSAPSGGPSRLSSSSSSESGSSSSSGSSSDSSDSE

Cc1cc(-c2nc3sc4c(c3c(=O)[nH]2)CCN(C)C4)cc(C)c1OCC(=O)OCc1c(-c2ccccc2)no[n+]1[O-]
Activity [1]: Active | IC50 [2]: 3.44 µM | Activity [3]: 5.21% | Activity [4]: 6.15% | Activity [5]: Active | Activity [6]: Active | IC50 [7]: 3.44 µM | IC50 [8]: > 20 µM | Activity [9]: Active | inhibition [10]: Active | Kd [11]: 17.5 µM | IC50 [12]: 1.94 µM | Activity [13]: 0.095 µmol/L | Activity [14]: 0.111 µmol/L | Activity [15]: Active | viability at 2 µM [16]: 85.1% | IC50 [17]: 0.82 µM | Activity [18]: 1.03% | inhibition [19]: Active | Activity [20]: Active | Kd [21]: 0.686 µM | Activity [22]: 0.055 µmol/L | Activity [23]: Non-Toxic | Activity [24]: 4.5% | IC50 [25]: 1.38 µM | Activity [26]: Active | Activity [27]: Active | Activity [28]: 0.054 µmol/L | IC50 [29]: 15.9 µM | Activity [30]: Active | Activity [31]: Active | Activity [32]: 0.258 µmol/L | IC50 [33]: > 20 µM | Activity [34]: Active | Activity [35]: 0.061 µmol/L | inhibition [36]: Active | Activity [37]: Active | Kd [38]: 0.419 µM | IC50 [39]: 2.69 µM | Kd [40]: 7.43 µM | Activity [41]: Active | Activity [42]: Active | IC50 [43]: 8.47 µM | IC50 [44]: > 20 µM | Activity [45]: 0.072 µmol/L | Activity [46]: Active | Activity [47]: Active | IC50 [48]: 0.82 µM | Activity [49]: 8.84% | IC50 [50]: > 20 µM | viability at 1 µM [51]: 88.9% | Activity [52]: 1.2%
